Data reported in publication PMC4695825 (Pharmaceutics, 2015).
Where a name gives a salt, the structure may show the parent alone. Read-outs that look alike come from different tables or passages of the source. Values belong to the molecule of their own block, whether it stands above or below them.

Assays:
[1] = parameters: method as in PMID 20188808; details: 400 μm needle length, cited from earlier work
[2] = cited from earlier work; for logP / water solubility: no reference given
[3] = cited from earlier work
[4] = parameters: method as in PMID 24333401; details: nanostructured lipid carrier; cited from earlier work
[5] = mean ± SD, n = 6; for Microneedle cumulative amount after 12 h (Qs): skin treated with 500 μm microneedle roller
Description: Frozen porcine ears were obtained from Animal Technologies, Tyler, TX, USA. Skin pieces were thawed at ambient temperatures and carefully shaved using an electric clipper (Wahl, Sterling, IL, USA). Full thickness skin was prepared by removing the subcutaneous fat from the underlying cartilage. The average thickness of the skin membrane was measured with a Digimatic Micrometer (Mitutoyo, Tokyo, Japan). Skin samples were maintained at −20 °C for storage. Prior to experiments, the skin samples were thawed at room temperature before use.
In vitro permeation experiments were conducted using a six-celled, static, vertical Franz diffusion cell system (PermeGear, Hellertown, PA, USA). Each cell contained a top donor compartment and a lower receptor compartment with a magnetic stirrer, sampling port, and water jacket maintained at 37 °C to simulate normal body temperature by Thermo Haake DC10-P5/U heating circulator bath (ThermoFisher Scientific, Waltham, MA, USA). The receptor compartment diffusion area was 1.77 cm^2 with a volume capacity of 12 mL filled with PBS. Skin samples obtained from different pigs were placed between the upper donor chamber and lower receiver chamber of the vertical Franz diffusion cells, which were sealed using high-vacuum grease (Dow Corning, Midland, MA, USA) and a metal clamp. Solid microneedle rollers were used to created microchannels in porcine skin. Full thickness microneedle-treated porcine skins were mounted on three-receptor compartments and untreated porcine skins were placed on the remaining three-receptor compartments to serve as controls, and diffusion experiments for the two drugs were replicated six times (n = 6). The microneedle roller was applied fifteen times to each skin sample to increase the number of microconduits for enhanced transdermal drug delivery. […] The sampling ports were also covered with parafilm to further reduce evaporation. […] Receptor chambers were replenished with an equal volume of fresh, pre-warmed PBS maintained at 37 °C. All samples were stored at 4 °C until analysis by LC–MS. The cumulative amount of each drug permeating the excised full thickness porcine skin was plotted as a function of time. The slope and intercept of the linear portion were derived by linear regression analysis. Steady state flux was calculated from the linear portion of the cumulative amount versus time curve.
Chromatographic separation was carried out on the reverse-phase Agilent Zorbax Eclipse Plus C18 (100 mm × 2.1 mm, 3.5 microns) analytical column, which was protected by a guard column with the same stationary phase (12.5 mm × 4.6 mm, 5 microns) (Agilent Technologies, Palo Alto, CA, USA). The column temperature was set at 40 °C, and the autosampler temperature was set at 4 °C. The mobile phase consisted of 0.1% formic acid in water (solvent A), and 0.1% formic acid in methanol (solvent B). […] A post-run time of 2 min for mobile phase equilibration was used after each sample run. Calibration curve standards were freshly prepared in PBS buffer solution. The MS data were collected in positive electro spray ionization tandem mass spectrometry (ESI MS/MS) mode. Nebulizer temperature was 350 °C, nebulizer pressure was 50 psi, and the drying gas flow rate was 10.0 L/min. Compounds were quantified in positive ESI MS/MS mode by quantifying the specific product ion.
Flux values were calculated using the steady-state portion of the cumulative amount versus time curves. Six replicates were used for the study.

Compound: Nc1nc2c(ncn2COCCO)c(=O)[nH]1 [acyclovir]
Flux enhancement after microneedle array pretreatment ([1]; 2000 needles/cm^2): significant enhancement
Flux enhancement after microneedle array pretreatment ([1]; 5625 needle/cm^2): lower enhancement

Compound: NC12CC3CC(CC(C3)C1)C2 [amantadine hydrochloride, Amantadine hydrochloride]
partition coefficient [2]: 2.44
logP [2]: 2.4
water solubility [2]: 50 mg/mL
pharmacokinetic half-life [3]: 10 h

Compound: Cc1cc2c(s1)Nc1ccccc1N=C2N1CCN(C)CC1 [olanzapine]
Change in transdermal permeation rate after microneedle device pretreatment [4]: slight but not statistically significant increase

Microneedle-facilitated transdermal flux ([5]; full thickness porcine ear skin treated with 500 μm stainless steel microneedle roller, 37 °C, donor amantadine ~50 mg/mL or pramipexole ~1 mg/mL, steady state): 134.04 ± 0.98 μg/cm^2/h
Microneedle cumulative amount after 12 h (Qs) ([5]; 12 h, listed as Pramipexole): 1583.43 ± 72.99 μg/cm^2
Microneedle cumulative amount after 12 h (Qs) ([5]; 12 h, listed as pramipexole): 1583.43 μg/cm^2
Passive (control) transdermal flux ([5]; untreated full thickness porcine ear skin, 37 °C, donor amantadine ~50 mg/mL or pramipexole ~1 mg/mL, steady state): 134.83 ± 13.66 μg/cm^2/h
Passive (control) cumulative amount after 12 h (Qs) ([5]; untreated full thickness porcine ear skin, 12 h): 1607.86 ± 35.77 μg/cm^2
Compound: CCCN[C@H]1CCc2nc(N)sc2C1 [pramipexole dihydrochloride]
logP [2]: 1.2
water solubility [2]: > 20 mg/mL
octanolphosphate buffer partition coefficient ([2]; pH 7.4): 0.135
pharmacokinetic half-life [3]: 6 to 8 h
